According to US6511989B2, “Acylaminoalkyl-substituted benzenesulfonamide derivatives, their preparation, their use and pharmaceutical preparations comprising them” (Aventis Pharma Deutschland GmbH, priority 2000, dated 2003):

What was measured:
[1] = test system: chloroform-induced ventricular fibrillation in the mouse; test: Chloroform-induced ventricular fibrillation in the mouse; type: in vivo; settings: 3 mg/kg i.p., 30 min before chloroform anesthesia; untreated control 100%
Text: Chloroform-induced Ventricular Fibrillation in the Mouse (Action in the Case of Vagal Dysfunction)
Hypoactivity of the vagal nervous system leads to hyperactivity of the sympathetic nervous system. Damages to health that result from an inequilibrium of the autonomic nervous system when the dysfunction affects the heart include the weakening of the myocardial contractile force and fatal cardiac arrhythmias such as ventricular fibrillation. The action of the test compounds was investigated in the model of chloroform-induced ventricular fibrillation in the mouse (see J. W. Lawson, Antiarrhythmic activity of some isoquinoline derivatives determined by a rapid screening procedure in the mouse; J. Pharmacol. Exp. Ther. 160 (1968) 22).
The test compound was dissolved in a mixture of dimethyl sulfoxide (DMSO) and 10 percent sodium hydrogencarbonate solution and administered intraperitoneally (i.p.). The dose was 3 mg/kg. 30 min later, the mouse was anesthetized with chloroform in a beaker. As soon as respiratory arrest had occurred under deep anesthesia (toxic stage of anesthesia), the thorax of the animal was opened using a pair of scissors and the heartbeat was visually inspected. It can be determined here at a glance whether the heart is beating, fibrillating, or has stopped. […]

[2] = biological target: hSUR1/hKir6.2 (Homo sapiens, UniProt Q09428+Q14654); test: Action on hSUR1/hKir6.2-transfected CHO cells (membrane potential, DIBAC4 fluorescence, FLIPR); type: cell-based; settings: 10 μM; CHO cells activated with diaxozide
Text: Action on hSUR1/hKir6.2-transfected CHO Cells (Hypoglycemic Action)
The target organ of these compounds is the […] of the pancreas where they block ATP-sensitive potassium channels and produce a release of the hypoglycemic hormone insulin by influencing the electrical potential of the cell membrane.
The extent of this depolarization of the cell membrane, which is caused by the compounds according to the invention, was investigated on CHO cells that were transfected with the cloned components of human pancreatic ATP-sensitive potassium channels, hSUR1, and hKir6.2, and activated by pretreatment with diaxozide, an opener of ATP-sensitive potassium channels. The potency of a compound with respect to the membrane potential of these transfected and activated CHO cells is a measure of the hypoglycemic potential of this compound.
On the day of measurement, the microtiter plates were washed three times with PBS (physiological buffer solution). In the last washing step, 90 μl remained in each well. The cells were then loaded with the fluorescent dye DIBAC4 (Molecular Probes, Portland, Oreg., USA) by addition of 90 μl of a 10-micromolar solution of DIBAC4 in PBS and of 90 μl of a 400 micromolar solution of diaxozide in PBS to each well. After an incubation time of 30 min at 37° C., the microtiter plates were then transferred to a fluorescent microtiter plate reader (FLIPR; Molecular Devices, Sunnyvale, Calif., USA). The cells were stimulated by means of an argon laser (Innova 90; Coherent, Santa Clara, Calif., USA) at a wavelength of 488 nm and the fluorescence emission was measured by means of a CCD camera. The measurement of the membrane potential began after 4 min by addition of 20 μl of a solution of the test compound or of the control solution to each well, the resulting fluorescence emission being measured every 20 seconds for a period of 20 min. The data shown are mean values of at least 4 experiments.

hSUR1/hKir6.2, sequence (Q09428 whole entry): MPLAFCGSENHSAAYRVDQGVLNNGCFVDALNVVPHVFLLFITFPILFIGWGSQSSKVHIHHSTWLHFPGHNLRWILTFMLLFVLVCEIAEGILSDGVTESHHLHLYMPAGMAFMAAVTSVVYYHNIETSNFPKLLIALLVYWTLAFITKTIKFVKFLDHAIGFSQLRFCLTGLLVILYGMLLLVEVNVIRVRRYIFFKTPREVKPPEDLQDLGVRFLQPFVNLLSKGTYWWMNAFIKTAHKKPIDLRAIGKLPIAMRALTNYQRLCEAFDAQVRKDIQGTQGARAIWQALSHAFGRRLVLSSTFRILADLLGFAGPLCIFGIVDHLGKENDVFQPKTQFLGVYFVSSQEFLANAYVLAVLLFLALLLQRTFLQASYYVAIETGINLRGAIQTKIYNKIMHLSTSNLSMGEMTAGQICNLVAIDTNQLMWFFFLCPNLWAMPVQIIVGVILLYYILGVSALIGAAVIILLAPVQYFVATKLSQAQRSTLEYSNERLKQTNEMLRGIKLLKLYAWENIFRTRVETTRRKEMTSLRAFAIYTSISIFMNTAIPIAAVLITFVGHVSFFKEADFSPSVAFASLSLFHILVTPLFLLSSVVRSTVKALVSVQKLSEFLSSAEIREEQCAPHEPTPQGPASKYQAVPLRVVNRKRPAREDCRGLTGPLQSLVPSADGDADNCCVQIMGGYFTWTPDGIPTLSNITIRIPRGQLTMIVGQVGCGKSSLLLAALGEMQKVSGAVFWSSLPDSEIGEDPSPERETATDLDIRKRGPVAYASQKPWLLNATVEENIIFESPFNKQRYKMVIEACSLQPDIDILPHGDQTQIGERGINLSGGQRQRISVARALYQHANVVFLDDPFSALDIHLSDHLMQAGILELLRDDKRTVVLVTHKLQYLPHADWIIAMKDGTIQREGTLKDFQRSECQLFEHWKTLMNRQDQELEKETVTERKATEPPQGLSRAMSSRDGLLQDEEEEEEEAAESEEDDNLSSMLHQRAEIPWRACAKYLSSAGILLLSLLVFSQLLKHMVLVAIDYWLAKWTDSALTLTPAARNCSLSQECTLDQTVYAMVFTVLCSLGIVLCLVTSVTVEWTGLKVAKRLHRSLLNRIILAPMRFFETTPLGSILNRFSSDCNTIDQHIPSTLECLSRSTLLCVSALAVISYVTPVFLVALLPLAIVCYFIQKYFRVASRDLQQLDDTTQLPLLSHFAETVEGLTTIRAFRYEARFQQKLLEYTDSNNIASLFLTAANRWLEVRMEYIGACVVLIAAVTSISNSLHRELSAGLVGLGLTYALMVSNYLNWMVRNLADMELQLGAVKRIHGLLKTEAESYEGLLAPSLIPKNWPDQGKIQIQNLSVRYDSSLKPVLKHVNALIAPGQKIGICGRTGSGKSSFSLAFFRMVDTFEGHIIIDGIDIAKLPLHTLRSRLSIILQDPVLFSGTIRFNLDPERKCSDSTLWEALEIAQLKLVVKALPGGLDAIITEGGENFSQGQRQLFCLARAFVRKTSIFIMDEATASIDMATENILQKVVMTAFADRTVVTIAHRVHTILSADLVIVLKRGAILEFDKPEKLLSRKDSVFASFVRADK
hSUR1/hKir6.2, sequence (Q14654 whole entry): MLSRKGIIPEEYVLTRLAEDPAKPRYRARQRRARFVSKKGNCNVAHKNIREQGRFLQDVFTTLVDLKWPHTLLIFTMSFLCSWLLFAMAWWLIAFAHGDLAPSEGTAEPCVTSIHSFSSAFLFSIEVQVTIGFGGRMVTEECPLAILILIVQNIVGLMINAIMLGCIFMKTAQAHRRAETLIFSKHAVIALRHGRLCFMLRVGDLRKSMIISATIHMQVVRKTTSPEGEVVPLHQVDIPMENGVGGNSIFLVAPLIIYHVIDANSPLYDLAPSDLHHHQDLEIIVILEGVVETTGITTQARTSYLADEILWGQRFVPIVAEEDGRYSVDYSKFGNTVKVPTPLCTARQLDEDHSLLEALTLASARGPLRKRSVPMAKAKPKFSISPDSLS

## COc1ccc(CCNC(=O)C2=CCCCC2)cc1S(=O)(=O)NC(=S)NC(C)C [Example 20, 1-[5-(2-(1-Cyclohex-1-enecarboxamido)ethyl)-2-methoxyphenylsulfonyl]-3-isopropyl-thiourea]
[1]
  Fibrillation ratio (in %): 70%
[2]
  Blockade hSUR1/hKir6.2: 38.3%
